Test results taken from patent US9957271B2, “Substituted bicyclic aza-heterocycles and analogues as sirtuin modulators” (GlaxoSmithKline, LLC, priority 2012, dated 2018).
Like-named read-outs stand apart in the source and are kept apart here. Values belong to the compound of their own block, whether it stands above or below them.

Target: T1, SIRT1 (Homo sapiens, UniProt Q96EB6)
T1 sequence (Q96EB6 1-747): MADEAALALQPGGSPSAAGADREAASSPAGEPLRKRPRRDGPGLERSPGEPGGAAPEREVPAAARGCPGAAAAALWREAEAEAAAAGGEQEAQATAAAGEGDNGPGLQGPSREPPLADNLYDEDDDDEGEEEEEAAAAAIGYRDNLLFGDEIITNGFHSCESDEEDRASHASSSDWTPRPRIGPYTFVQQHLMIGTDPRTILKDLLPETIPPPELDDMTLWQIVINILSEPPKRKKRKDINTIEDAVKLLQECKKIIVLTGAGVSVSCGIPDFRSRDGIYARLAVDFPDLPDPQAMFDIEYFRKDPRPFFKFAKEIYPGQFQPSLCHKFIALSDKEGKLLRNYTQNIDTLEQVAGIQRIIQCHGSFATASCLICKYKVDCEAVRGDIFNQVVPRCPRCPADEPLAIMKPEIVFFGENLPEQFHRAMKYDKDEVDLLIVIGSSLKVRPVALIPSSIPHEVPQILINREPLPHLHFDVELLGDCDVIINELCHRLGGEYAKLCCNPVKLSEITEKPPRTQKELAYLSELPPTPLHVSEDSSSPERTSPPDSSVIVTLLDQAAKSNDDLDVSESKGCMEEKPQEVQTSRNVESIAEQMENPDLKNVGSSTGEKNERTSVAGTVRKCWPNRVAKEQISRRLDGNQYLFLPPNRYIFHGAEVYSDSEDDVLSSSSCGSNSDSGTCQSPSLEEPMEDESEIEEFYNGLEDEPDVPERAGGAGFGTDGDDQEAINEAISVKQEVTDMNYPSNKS
Assay: TAMRA based mass spectrometry assay of SIRT1 activity
Type: biochemical
Conditions: for Emax: read-out: TAMRA % Fold Act
Procedure, shortened: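 Deacetylation of a biotinylated, TAMRA-tagged p53-based peptide (0.5 μM) by 10 nM His-tagged SIRT1 with 120 μM βNAD+, 25 °C for 25 min, pH 8 Tris-acetate buffer, across a compound concentration range. Quenched by formic acid and read by mass spec as product peptide or OAADPR; activity relative to DMSO reactions, nicotinamide defining maximal inhibition.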

[1] = TAMRA assay, concentration giving 150% activation of SIRT1
[2] = TAMRA assay, percent maximum fold activation
[3] = TAMRA peptide substrate, concentration giving 150% activation of SIRT1
[4] = TAMRA peptide substrate, percent maximum fold activation
[5] = concentration of test compound giving 150% activation of SIRT1, TAMRA peptide substrate
[6] = percent maximum fold activation of SIRT1, TAMRA peptide substrate

Compound: O=C(Nc1cccc(OCC(O)CO)n1)c1c(O)nc2ccc(-c3ccccc3C(F)(F)F)nn12 (stereo not drawn) [Compound 344]
TAMRA EC1.5 (μM) [1]: B (EC1.5 1-25 μM)
Emax [2]: < 350%

Compound: O=C(Nc1cccc(CN2CCC(F)(F)CC2)n1)c1cnc2ccc(-c3ccccc3C(F)(F)F)nn12 [Compound 391]
TAMRA EC1.5 (μM) [1]: A (EC1.5<1 μM)
Emax [2]: ≥ 350%

Compound: Cc1nc(C)c(-c2ccc3ncc(C(=O)Nc4cccc(N5CCOCC5)n4)n3n2)s1 [Compound 65]
TAMRA EC1.5 (μM) [5]: A (EC1.5<1 μM)
Emax [6]: < 350%

Compound: O=C(Nc1cccc(N2CCOCC2)n1)c1cnc2ccc(-c3cccc(F)c3Cl)nn12 [Compound 178]
TAMRA EC1.5 (μM) [5]: A (EC1.5<1 μM)
Emax [6]: < 350%

Compound: Cc1nc(C(=O)Nc2cnc3ccc(-c4ccccc4C(F)(F)F)nn23)c(C)s1 [Compound 220]
TAMRA EC1.5 (μM) [1]: A (EC1.5<1 μM)
Emax [2]: ≥ 350%

Compound: Cc1nc(C(=O)Nc2cnc3ccc(-c4ccccc4C#N)nn23)c(C)s1 [Compound 334]
TAMRA EC1.5 (μM) [1]: A (EC1.5<1 μM)
Emax [2]: ≥ 350%

Compound: Cc1nc2ccc(-c3ccccc3Cl)nn2c1NC(=O)c1cnccn1 [Compound 347]
TAMRA EC1.5 (μM) [1]: C (EC1.5>25 μM)
Emax [2]: < 350%

Compound: Cc1ccc(NC(=O)c2cnc3ccc(-c4ccccc4C(F)(F)F)nn23)nn1 [Compound 276]
TAMRA EC1.5 (μM) [1]: A (EC1.5<1 μM)
Emax [2]: ≥ 350%

Compound: O=C(Nc1cnc2ccc(-c3ccccc3C(F)(F)F)nn12)c1cccc(N2CCC2)n1 [Compound 144]
TAMRA EC1.5 (μM) [5]: A (EC1.5<1 μM)
Emax [6]: ≥ 350%

Compound: O=C(Nc1ccncc1F)c1cnc2ccc(-c3ccccc3OC(F)(F)F)nn12 [Compound 359]
TAMRA EC1.5 (μM) [1]: B (EC1.5 1-25 μM)
Emax [2]: ≥ 350%

Compound: Cc1noc(C)c1-c1ccc2ncc(C(=O)Nc3ccnc(N4CCC4)c3)n2n1 [Compound 55]
TAMRA EC1.5 (μM) [5]: C (EC1.5>25 μM)
Emax [6]: < 350%

Compound: O=C(Nc1cncnc1)c1cnc2ccc(-c3ccccc3C(F)(F)F)nn12 [Compound 106]
TAMRA EC1.5 (μM) [5]: B (EC1.5 1-25 μM)
Emax [6]: < 350%

Compound: Cc1cncc(NC(=O)c2cnc3ccc(-c4ccccc4C(F)(F)F)nn23)c1 [Compound 97]
TAMRA EC1.5 (μM) [5]: B (EC1.5 1-25 μM)
Emax [6]: ≥ 350%

Compound: Cc1cnc(NC(=O)c2cnc3ccc(-c4ccccc4OC(F)(F)F)nn23)s1 [Compound 397]
TAMRA EC1.5 [3]: A (EC1.5<1 μM)
Emax [4]: < 350%

Compound: Cc1cnc(C(=O)Nc2cnc3ccc(-c4ccccc4C(F)(F)F)nn23)cn1 [Compound 219, 5-methyl-N-(6-(2-(trifluoromethyl)phenyl)imidazo[1,2-b]pyridazin-3-yl)pyrazine-2-carboxamide]
TAMRA EC1.5 (μM) [1]: A (EC1.5<1 μM)
Emax [2]: ≥ 350%

Compound: O=C(Nc1cccc(N2CCOCC2)n1)c1cnn2ccc(-c3ccccc3C(F)(F)F)nc12 [Compound 241]
TAMRA EC1.5 (μM) [1]: A (EC1.5<1 μM)
Emax [2]: ≥ 350%

Compound: O=C(Nc1cccc(CN2CCOCC2)n1)c1cnc2ccc(-c3ccc(F)c(F)c3F)nn12 [Compound 127]
TAMRA EC1.5 (μM) [5]: B (EC1.5 1-25 μM)
Emax [6]: < 350%

Compound: O=C(Nc1ccnc(N2CCOCC2)c1)c1cnc2ccc(-c3ccccc3C(F)(F)F)nn12 [Compound 24]
TAMRA EC1.5 (μM) [5]: B (EC1.5 1-25 μM)
Emax [6]: ≥ 350%

Compound: Cc1cc2ncc(C(=O)Nc3cnccn3)n2nc1-c1ccccc1C(F)(F)F [Compound 246]
TAMRA EC1.5 (μM) [1]: B (EC1.5 1-25 μM)
Emax [2]: ≥ 350%

Compound: O=C(Nc1nc(CN2CCOCC2)cs1)c1cnc2ccc(-c3cc(F)ccc3F)nn12 [Compound 31]
TAMRA EC1.5 (μM) [5]: B (EC1.5 1-25 μM)
Emax [6]: < 350%

Compound: Cc1cnc(NC(=O)c2cnc3ccc(-c4ccccc4C(F)(F)F)nn23)s1 [Compound 109]
TAMRA EC1.5 (μM) [5]: A (EC1.5<1 μM)
Emax [6]: ≥ 350%

Compound: O=C(Nc1cnccn1)c1cnc2ccc(-c3c(F)cccc3F)nn12 [Compound 171]
TAMRA EC1.5 (μM) [5]: C (EC1.5>25 μM)
Emax [6]: < 350%

Compound: O=C(Nc1cccc(N2CCOCC2)n1)c1cnc2ccc(-c3cccc(Cl)c3F)nn12 [Compound 158]
TAMRA EC1.5 (μM) [5]: A (EC1.5<1 μM)
Emax [6]: ≥ 350%

Compound: O=C(Nc1nc(CN2CCOCC2)cs1)c1cnc2ccc(-c3cccc(F)c3F)nn12 [Compound 48]
TAMRA EC1.5 (μM) [5]: B (EC1.5 1-25 μM)
Emax [6]: ≥ 350%

Compound: Cn1cc(NC(=O)c2cnc3ccc(-c4ccccc4C(F)(F)F)nn23)cn1 [Compound 153]
TAMRA EC1.5 (μM) [5]: B (EC1.5 1-25 μM)
Emax [6]: ≥ 350%

More lines, now with the values ahead:

TAMRA EC1.5 [3]: A (EC1.5<1 μM)
Emax [4]: ≥ 350%
Compound: O=C(Nc1nccs1)c1cnn2ccc(-c3ccccc3C(F)(F)F)nc12 [Compound 506]

TAMRA EC1.5 (μM) [1]: A (EC1.5<1 μM)
Emax [2]: ≥ 350%
Compound: Cc1ccc(NC(=O)c2cnn3ccc(-c4ccccc4C(F)(F)F)nc23)nn1 [Compound 655]

TAMRA EC1.5 (μM) [1]: A (EC1.5<1 μM)
Emax [2]: ≥ 350%
Compound: Cc1nc2ccc(-c3ccccc3C(F)(F)F)nn2c1C(=O)Nc1ccc(Cl)cn1 [Compound 673]

TAMRA EC1.5 [3]: B (EC1.5 1-25 μM)
Emax [4]: < 350%
Compound: O=C(Nc1cnn2ccc(-c3ccccc3OC(F)(F)F)nc12)c1cccnc1 [Compound 582]

TAMRA EC1.5 (μM) [1]: A (EC1.5<1 μM)
Emax [2]: ≥ 350%
Compound: COc1cncnc1NC(=O)c1c(C)nc2ccc(-c3ccccc3C(F)(F)F)nn12 [Compound 670]

TAMRA EC1.5 [3]: A (EC1.5<1 μM)
Emax [4]: ≥ 350%
Compound: Cc1nc(NC(=O)c2cnn3ccc(-c4ccccc4C(F)(F)F)nc23)sc1C [Compound 509]

TAMRA EC1.5 [3]: A (EC1.5<1 μM)
Emax [4]: ≥ 350%
Compound: O=C(Nc1ncn2ccc(-c3ccccc3C(F)(F)F)nc12)c1cccc(N2CCOCC2)n1 [Compound 456]

TAMRA EC1.5 (μM) [1]: A (EC1.5<1 μM)
Emax [2]: ≥ 350%
Compound: Cc1csc(NC(=O)c2cnn3ccc(-c4ccccc4OC(F)(F)F)nc23)n1 [Compound 702]

TAMRA EC1.5 [3]: A (EC1.5<1 μM)
Emax [4]: ≥ 350%
Compound: Cc1nn2ccc(-c3ccccc3C(F)(F)F)nc2c1C(=O)Nc1ccncn1 [Compound 547]

TAMRA EC1.5 [3]: B (EC1.5 1-25 μM)
Emax [4]: ≥ 350%
Compound: O=C(Nc1cccc(N2CCOCC2)n1)c1cnc2ccc(N3CC[C@@H](F)C3)nn12 [Compound 488]

TAMRA EC1.5 (μM) [1]: A (EC1.5<1 μM)
Emax [2]: ≥ 350%
Compound: COCc1nccc(NC(=O)c2c(C)nc3c(C)cc(-c4ccccc4C(F)(F)F)nn23)n1 [Compound 733]

TAMRA EC1.5 [3]: C (EC1.5>25 μM)
Emax [4]: < 350%
Compound: Cc1nn2ccc(-c3ccccc3C(F)(F)F)nc2c1NC(=O)c1cccc(O)n1 [Compound 575]

TAMRA EC1.5 [3]: A (EC1.5<1 μM)
Emax [4]: ≥ 350%
Compound: Cc1cc(-c2ccccc2C(F)(F)F)nn2c(NC(=O)c3ncccn3)cnc12 [Compound 410]

TAMRA EC1.5 [3]: A (EC1.5<1 μM)
Emax [4]: ≥ 350%
Compound: O=C(Nc1cnn2ccc(-c3ccccc3C(F)(F)F)nc12)c1nccs1 [Compound 563]

TAMRA EC1.5 (μM) [1]: A (EC1.5<1 μM)
Emax [2]: < 350%
Compound: Cc1ccncc1NC(=O)c1c(C)nn2ccc(-c3ccccc3C(F)(F)F)nc12 [Compound 649]

TAMRA EC1.5 (μM) [1]: A (EC1.5<1 μM)
Emax [2]: ≥ 350%
Compound: Cc1nc2ccc(-c3ccccc3OC[C@H](O)CO)nn2c1C(=O)Nc1cnccn1 [Compound 775]

TAMRA EC1.5 [3]: A (EC1.5<1 μM)
Emax [4]: ≥ 350%
Compound: O=C(Nc1ccncc1)c1cnn2ccc(-c3ccccc3OC(F)(F)F)nc12 [Compound 531]

TAMRA EC1.5 [3]: B (EC1.5 1-25 μM)
Emax [4]: < 350%
Compound: Cc1nn2ccc(-c3ccccc3C(F)(F)F)nc2c1NC(=O)c1cccc(CN2CCOCC2)n1 [Compound 573]

TAMRA EC1.5 [3]: C (EC1.5>25 μM)
Emax [4]: < 350%
Compound: Cc1nn2ccc(-c3ccccc3C(F)(F)F)nc2c1NC(=O)c1ccncc1 [Compound 569]

TAMRA EC1.5 (μM) [1]: A (EC1.5<1 μM)
Emax [2]: ≥ 350%
Compound: Cc1cc(C(=O)Nc2cnn3ccc(-c4ccccc4C(F)(F)F)nc23)nc(C)n1 [Compound 795]

TAMRA EC1.5 (μM) [1]: A (EC1.5<1 μM)
Emax [2]: ≥ 350%
Compound: Cc1ccc(NC(=O)c2c(C)nn3ccc(-c4ccccc4C(F)(F)F)nc23)cn1 [Compound 637]

TAMRA EC1.5 (μM) [1]: A (EC1.5<1 μM)
Emax [2]: ≥ 350%
Compound: CCOc1cc(NC(=O)c2cnn3ccc(-c4ccccc4OC(F)(F)F)nc23)ccn1 [Compound 626]

TAMRA EC1.5 [3]: A (EC1.5<1 μM)
Emax [4]: ≥ 350%
Compound: Cc1cc(C)nc(NC(=O)c2cnc3ccc(-c4cccc(OCC(O)CO)c4)nn23)c1 (stereo not drawn) [Compound 417]

TAMRA EC1.5 (μM) [1]: A (EC1.5<1 μM)
Emax [2]: ≥ 350%
Compound: Cc1cnc(NC(=O)c2c(C)nn3ccc(-c4ccccc4C(F)(F)F)nc23)s1 [Compound 652]

TAMRA EC1.5 (μM) [1]: B (EC1.5 1-25 μM)
Emax [2]: < 350%
Compound: CCOc1ccc(NC(=O)c2c(C)nc3ccc(-c4ccccc4F)nn23)nn1 [Compound 741]

TAMRA EC1.5 [3]: A (EC1.5<1 μM)
Emax [4]: ≥ 350%
Compound: Cc1nn2ccc(-c3ccccc3C(F)(F)F)nc2c1C(=O)Nc1ccncc1 [Compound 560]
